Source: patent publication US20220079910A1, “Cancer Treatment Useing Docetaxel by Controlling Peak Plasma Levels” (Modra Pharmaceuticals B.V., priority 2018, published 2022)
Read-outs that look alike come from different tables or passages of the source.

Tests used:
[1] = Phase I trial N07DOW: docetaxel plasma exposure after oral docetaxel with ritonavir; assay type: in vivo; details: human, mean±SD; for AUC(0-t): read-out: docetaxel AUC0-48 h
Experimental: (§1) We treated in a phase I trial (N07DOW) cancer patients (n=100) with oral docetaxel in combination with ritonavir. The dose was administered on one day (single dose), once per week. Data presented as mean±standard deviation. If available, kinetic data of 2 cycles per patient were used.

cancer patients [2] = assay: Phase I trial N07DOW: treatment duration, SAEs/DLTs, best response; assay type: in vivo, human; details: n=100
Experimental: as §1
Treatment duration of 19 patients was from 19 up to 72 weeks. These were patients with the following cancers. Head and neck (n=1), non-small cell lung (n=8), anal (n=1), primary unknown (n=3), ovarian (n=1), esophageal (n=1), urothelial cell (n=2), leiomyosarcoma (n=1) and neuroendocrine lung carcinoma (n=1). The docetaxel exposure in these patients was:
(§2) The docetaxel exposure in these patients was:
Fiftytwo patients had SD (stable disease) (n=42) or PR (partial response) (n=10) as best treatment response.

[3] = Phase I trial N10BOM: docetaxel plasma exposure after oral docetaxel with ritonavir; assay type: in vivo; details: human; for AUC(0-t): read-out: docetaxel AUC0-48 h
Experimental: (§3) We treated in a phase I trial (N10BOM) cancer patients (n=64) with oral docetaxel in combination with ritonavir. The dose was administered bi-daily once per week continuously.

cancer patients [4] = assay: Phase I trial N10BOM: treatment duration, SAEs/DLTs, best response; assay type: in vivo, human; details: n=64
Experimental: as §3
Treatment duration of 8 patients was from 19 up to 55 weeks. These were patients with the following cancers. Head and neck cancer (n=2; PR), non-small cell lung (n=4; SD), colorectal (n=1; SD) and giant cell neuroendocrine carcinoma (n=1; SD). The docetaxel exposure in these patients was:
as §2
Twentyfive patients had SD or PR as best treatment response.

[5] = Weekly intravenous docetaxel infusion: AUC and CMAX (Baker et al.); assay type: in vivo, human; details: IV 35 mg/m2 in 0.5 h vs oral in patients with solid tumors (not prostate)
[6] = IV docetaxel q3w AUC in mCRPC patients vs other tumors (De Vries Schultink et al.); details: human, in vivo, weekly equivalent, read-out: weekly AUC of IV docetaxel in mCRPC patients (q3w AUC divided by 3)
Experimental: The target minimum AUC threshold in mCRPC patients is highlighted and ranges from about 600-800 h*ng/mL.

[7] = tested on: metastasized castration-resistant prostate cancer (mCRPC); assay: Phase IB/IIA study in mCRPC (M17DOC): PSA response, radiological response, treatment cycles; assay type: in vivo, human; details: FIG. 3 / FIG. 6; target range 500-1500 h*ng/mL (FIG. 6)
From the text: In FIG. 8 a plot is shown of the number of treatment cycles (with a maximum of 30) in a multicenter clinical phase IB study in mCRPC (M17DOC) of evaluable patients. Patients were scored, as PSA progression (black bars); PSA equal to baseline or decline (<50%) (dark grey bars); PSA response (decline ≥50%) (medium grey bars); clinical response (pain reduction) up to the maximum treatment period permitted in the protocol of 30 weeks (light grey bars).
(§4) A multicenter clinical phase IB/IIA study was conducted in mCRPC (M17DOC), wherein ModraDoc006, an oral docetaxel formulation was combined with ritonavir (ModraDoc006/r), in metastasized castration-resistant prostate cancer (mCRPC).
(§5) The study included patients diagnosed with metastasized castration-resistant prostate cancer (mCRPC), dosed in a bi-daily once weekly (BIDW) dosing schedule at 4 dose levels (see table below).
This study included 20 evaluable patients diagnosed with metastasized castration-resistant prostate cancer (mCRPC), dosed in a bi-daily once weekly (BIDW) dosing schedule at 4 dose levels (see table).

[8] = in vivo
Experimental: The described method was successfully applied in clinical studies with oral administration of docetaxel in combination with ritonavir.
Our next step was to investigate this oral treatment schedule in patients with metastatic Castration Resistant Prostate Cancer (mCRPC) in a phase IB/.IIA trial.
as §4, §5

[9] = weekly docetaxel 35 mg/m2 as 0.5 h intravenous infusion; cited from earlier work
[10] = cited from earlier work
[11] = oral, 10 patients with SAEs and DLTs (≥grade 3)
[12] = oral, 25 patients with SD or PR as best treatment response
[13] = po, oral docetaxel + ritonavir bi-daily once per week, 8 patients with treatment duration 19 up to 55 weeks

CC(=O)O[C@@]12CO[C@@H]1C[C@H](O)[C@@]1(C)C(=O)[C@H](O)C3=C(C)[C@@H](OC(=O)[C@H](O)[C@@H](NC(=O)OC(C)(C)C)c4ccccc4)C[C@@](O)([C@@H](OC(=O)c4ccccc4)[C@H]21)C3(C)C [docetaxel] showed an AUC(0-t) ([1]; oral, 15 patients with SAEs and DLTs (≥grade 3)) of 2340 ± 1450 ng·h/mL, a Cmax ([1]; oral, 15 patients with SAEs and DLTs (≥grade 3), read-out: docetaxel CMAX) of 351 ± 244 ng/mL and an AUC(0-t) ([1]; oral, 52 patients with SD or PR as best treatment response) of 1080 ± 1020 ng·h/mL. It also gave a Cmax ([1]; oral, 52 patients with SD or PR as best treatment response, read-out: docetaxel CMAX) of 197 ± 186 ng/mL, an AUC(0-t) ([1]; po, oral docetaxel + ritonavir, single dose once per week, 19 patients with treatment duration 19 up to 72 weeks) of 803 ± 634 ng·h/mL and a Cmax ([1]; po, oral docetaxel + ritonavir, single dose once per week, 19 patients with treatment duration 19 up to 72 weeks, read-out: docetaxel CMAX (peak)) of 148 ± 113 ng/mL. For the same compound, the “patients with PR (partial response) as best treatment response” value (cancer patients [2]) was 10 patients, the “patients with SAEs and DLTs (possible, probable, definite; ≥grade 3)” value (cancer patients [2]) was 15 patients and the “patients with SD (stable disease) as best treatment response” value (cancer patients [2]) was 42 patients. For the same compound, the “patients with SD or PR as best treatment response” value (cancer patients [2]) was “Fiftytwo”, the Cmax [3, 11] was 175 ± 117 ng/mL and the AUC(0-t) [3, 11] was 1810 ± 1260 ng·h/mL. The Cmax [3, 12] was 140 ± 83 ng/mL, the AUC(0-t) [3, 12] was 1240 ± 702 ng·h/mL and the Cmax [3, 13] was 143 ± 67 ng/mL. The AUC(0-t) [3, 13] was 1220 ± 620 ng·h/mL, the “patients with SAEs and DLTs (possible, probable, definite; ≥grade 3)” value (cancer patients [4]) was 10 patients and the “patients with SD or PR as best treatment response” value (cancer patients [4]) was “Twentyfive”. The “CMAX after intravenous administration relative to oral ModraDoc006/r 30-20/100-100” value [5] was “ten-fold higher”, the AUC [6] was about 600 ng·h/mL and the “length of treatment (number of cycles) in patients in a target docetaxel AUC range” value [7] was “trending longer”. The “docetaxel clearance in mCRPC patient population vs patients with other solid tumors” value [8] was “higher clearance”, the AUC [9] was 1480 ± 410 ng·h/mL and the “ratio of AUCs for IV docetaxel in mCRPC patients vs other tumors” value ([10]; 1820/3300) was 55%. For the same compound, the “q3w AUC of IV docetaxel in mCRPC patients” value ([10]; IV, every three weeks) was 1820 ng·h/mL.
